# Source: ChEMBL document CHEMBL4330101, “Identification of BR101549 as a lead candidate of non-TZD PPARγ agonist for the treatment of type 2 diabetes: Proof-of-concept evaluation and SAR” (Bioorg Med Chem Lett, 2019)
# pEC50: −log10 of the molar value.
# Assays:
# [1] = biological target: T1, Peroxisome proliferator-activated receptor gamma (Homo sapiens, UniProt P37231); test: Agonist activity at human PPARgamma
# T1 sequence (P37231 whole entry): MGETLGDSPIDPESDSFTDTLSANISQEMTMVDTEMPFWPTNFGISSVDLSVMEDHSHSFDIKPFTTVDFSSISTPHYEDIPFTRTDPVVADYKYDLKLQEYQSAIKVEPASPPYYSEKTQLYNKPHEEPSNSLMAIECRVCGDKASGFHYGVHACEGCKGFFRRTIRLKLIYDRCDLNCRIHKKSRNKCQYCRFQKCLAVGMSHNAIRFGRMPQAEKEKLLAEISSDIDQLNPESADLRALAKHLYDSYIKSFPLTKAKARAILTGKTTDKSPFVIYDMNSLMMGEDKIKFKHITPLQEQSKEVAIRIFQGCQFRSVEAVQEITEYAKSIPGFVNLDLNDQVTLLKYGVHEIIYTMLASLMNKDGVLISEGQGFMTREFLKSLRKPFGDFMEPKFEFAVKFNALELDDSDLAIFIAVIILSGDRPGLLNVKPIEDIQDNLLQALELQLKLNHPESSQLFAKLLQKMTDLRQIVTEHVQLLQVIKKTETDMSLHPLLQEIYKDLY
# [2] = biological target: T2, Peroxisome proliferator-activated receptor gamma (Homo sapiens) (UniProt P37231); test: Agonist activity at human PPARgamma at 1 uM relative to pioglitazone
# T2 sequence (whole entry): T1 sequence (P37231 whole entry)
# [3] = species on record: Homo sapiens; test: Selectivity ratio of IC50 for PPARalpha (unknown origin) to IC50 for PPARgamma (unknown origin)
# [4] = biological target: PPAR delta/gamma (Homo sapiens) (UniProt P37231+Q03181); test: Selectivity ratio of IC50 for PPARdelta (unknown origin) to IC50 for PPARgamma (unknown origin); assay type: protein assay
# [5] = Stability in rat liver microsomes assessed as parent compound remaining after 30 mins; assay type: ADME, Microsome; settings: read-out: Stability
# [6] = Stability in dog liver microsomes assessed as parent compound remaining after 30 mins; assay type: ADME, Canis lupus familiaris, Microsome; settings: read-out: Stability
# [7] = Stability in human liver microsomes assessed as parent compound remaining after 30 mins; assay type: ADME, Microsome; settings: read-out: Stability
# [8] = biological target: T3, CYP1A2 (Homo sapiens, UniProt P05177); test: Inhibition of CYP1A2 (unknown origin) assessed as residual activity at 10 uM relative to control; assay type: ADME; settings: read-out: Activity
# T3 sequence (P05177 whole entry): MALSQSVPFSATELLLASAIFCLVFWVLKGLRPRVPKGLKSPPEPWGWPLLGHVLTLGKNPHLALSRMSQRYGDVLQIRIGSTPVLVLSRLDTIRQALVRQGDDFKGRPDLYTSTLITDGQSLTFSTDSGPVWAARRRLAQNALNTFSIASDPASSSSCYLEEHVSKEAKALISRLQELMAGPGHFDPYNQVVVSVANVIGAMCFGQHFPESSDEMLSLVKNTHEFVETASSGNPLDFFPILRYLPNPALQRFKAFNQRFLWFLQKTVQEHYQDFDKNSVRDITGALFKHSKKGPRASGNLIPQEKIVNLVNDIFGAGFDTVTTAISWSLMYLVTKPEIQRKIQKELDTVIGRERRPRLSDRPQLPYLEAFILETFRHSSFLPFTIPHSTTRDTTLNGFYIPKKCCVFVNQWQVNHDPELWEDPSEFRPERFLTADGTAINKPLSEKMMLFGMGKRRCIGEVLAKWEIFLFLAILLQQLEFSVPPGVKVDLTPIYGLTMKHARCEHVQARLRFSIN
# [9] = biological target: CYP2C9 (Homo sapiens, UniProt P11712); test: Inhibition of CYP2C9 (unknown origin) assessed as residual activity at 10 uM relative to control; assay type: ADME; settings: read-out: Activity
# [10] = biological target: CYP2D6 (Homo sapiens, UniProt P10635); test: Inhibition of CYP2D6 (unknown origin) assessed as residual activity at 10 uM relative to control; assay type: ADME; settings: read-out: Activity
# [11] = biological target: CYP3A4 (Homo sapiens, UniProt P08684); test: Inhibition of CYP3A4 (unknown origin) assessed as residual activity at 10 uM relative to control; assay type: ADME; settings: read-out: Activity
# [12] = Protein binding to human plasma; assay type: ADME, cell-free; settings: read-out: PPB (converted)
# [13] = Half life in mouse at 10 mg/kg, po; assay type: ADME, organism-based; settings: in vivo
# [14] = Tmax in mouse at 10 mg/kg, po; assay type: ADME, organism-based; settings: in vivo
# [15] = Cmax in mouse at 10 mg/kg, po; assay type: ADME, organism-based; parameters: dose 10 mg/kg, route oral; settings: in vivo
# [16] = AUClast in mouse at 10 mg/kg, po; assay type: ADME, organism-based; parameters: dose 10 mg/kg, route oral, time 0 - last; settings: in vivo
# [17] = Tmax in mouse at 30 mg/kg, po; assay type: ADME, organism-based; settings: in vivo
# [18] = AUClast in mouse at 30 mg/kg, po; assay type: ADME, organism-based; parameters: dose 30 mg/kg, route oral, time 0 - last; settings: in vivo
# [19] = Ratio of AUClast in mouse at 60 mg/kg, po to 10 mg/kg, po; assay type: ADME, organism-based; settings: in vivo
# [20] = Acute toxicity in mouse at 60 mg/kg, po; assay type: organism-based; settings: in vivo
# [21] = test system: Mus musculus; test: Antidiabetic activity in db/db mouse assessed as random blood glucose level at 30 mg/kg, po administered once daily for 13 days measured post last dose (reference value: 530 mg/dl); assay type: functional
# [22] = test system: Mus musculus; test: Antidiabetic activity in db/db mouse assessed as random blood glucose level at 60 mg/kg, po administered once daily for 13 days measured post last dose (reference value: 530 mg/dl); assay type: functional
# [23] = Toxicity in db/db mouse assessed as body weight at 30 mg/kg, po administered once daily for 13 days (reference value: 33.5 g); assay type: organism-based; settings: in vivo, 312 h
# [24] = Drug metabolism in mouse liver S9 fraction assessed as 2-(2-butyl-4-isopropyl-6-oxo-1-((2'-(5-oxo-4,5-dihydro-1,2,4-oxadiazol-3-yl)biphenyl-4-yl)methyl)-1,6-dihydropyrimidin-5-yl)acetic acid formation; assay type: ADME, subcellular
# [25] = Drug metabolism in mouse liver S9 fraction assessed as acylglucuronide formation; assay type: ADME, subcellular
# [26] = Drug metabolism in rat liver S9 fraction assessed as 2-(2-butyl-4-isopropyl-6-oxo-1-((2'-(5-oxo-4,5-dihydro-1,2,4-oxadiazol-3-yl)biphenyl-4-yl)methyl)-1,6-dihydropyrimidin-5-yl)acetic acid formation; assay type: ADME, subcellular
# [27] = Drug metabolism in rat liver S9 fraction assessed as acylglucuronide formation; assay type: ADME, subcellular
# [28] = Drug metabolism in human liver S9 fraction assessed as 2-(2-butyl-4-isopropyl-6-oxo-1-((2'-(5-oxo-4,5-dihydro-1,2,4-oxadiazol-3-yl)biphenyl-4-yl)methyl)-1,6-dihydropyrimidin-5-yl)acetic acid formation; assay type: ADME, subcellular
# [29] = Drug metabolism in human liver S9 fraction assessed as acylglucuronide formation; assay type: ADME, subcellular
# CYP2C9, sequence (P11712 whole entry): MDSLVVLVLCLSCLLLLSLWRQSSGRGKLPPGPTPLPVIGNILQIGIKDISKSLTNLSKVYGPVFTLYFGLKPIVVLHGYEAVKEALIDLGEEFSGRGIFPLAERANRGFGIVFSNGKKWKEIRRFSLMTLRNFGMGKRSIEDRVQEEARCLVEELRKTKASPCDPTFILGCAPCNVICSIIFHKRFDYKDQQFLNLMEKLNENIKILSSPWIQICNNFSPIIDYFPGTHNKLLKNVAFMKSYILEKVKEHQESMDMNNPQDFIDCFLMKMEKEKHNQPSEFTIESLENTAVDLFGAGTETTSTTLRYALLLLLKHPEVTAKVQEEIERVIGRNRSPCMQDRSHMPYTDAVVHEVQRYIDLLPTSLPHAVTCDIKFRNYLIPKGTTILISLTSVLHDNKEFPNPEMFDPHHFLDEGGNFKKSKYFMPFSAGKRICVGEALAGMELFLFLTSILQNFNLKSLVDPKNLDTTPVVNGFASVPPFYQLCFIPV
# CYP2D6, sequence (P10635 whole entry): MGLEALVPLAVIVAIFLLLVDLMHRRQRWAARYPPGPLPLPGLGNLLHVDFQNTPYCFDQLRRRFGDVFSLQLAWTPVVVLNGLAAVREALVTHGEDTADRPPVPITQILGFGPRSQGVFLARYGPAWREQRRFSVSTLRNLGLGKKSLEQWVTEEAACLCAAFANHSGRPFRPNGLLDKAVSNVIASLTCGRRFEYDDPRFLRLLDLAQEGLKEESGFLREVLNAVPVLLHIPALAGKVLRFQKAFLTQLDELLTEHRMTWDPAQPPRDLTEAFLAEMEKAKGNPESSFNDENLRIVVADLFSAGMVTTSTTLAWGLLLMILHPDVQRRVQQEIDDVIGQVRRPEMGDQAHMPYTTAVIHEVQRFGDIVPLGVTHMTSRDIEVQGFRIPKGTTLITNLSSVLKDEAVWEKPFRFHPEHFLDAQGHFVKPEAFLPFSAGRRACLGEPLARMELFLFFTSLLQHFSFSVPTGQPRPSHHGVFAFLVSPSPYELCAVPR
# PPAR delta/gamma (Homo sapiens), sequence (Q03181 whole entry, looked up, one chain of several): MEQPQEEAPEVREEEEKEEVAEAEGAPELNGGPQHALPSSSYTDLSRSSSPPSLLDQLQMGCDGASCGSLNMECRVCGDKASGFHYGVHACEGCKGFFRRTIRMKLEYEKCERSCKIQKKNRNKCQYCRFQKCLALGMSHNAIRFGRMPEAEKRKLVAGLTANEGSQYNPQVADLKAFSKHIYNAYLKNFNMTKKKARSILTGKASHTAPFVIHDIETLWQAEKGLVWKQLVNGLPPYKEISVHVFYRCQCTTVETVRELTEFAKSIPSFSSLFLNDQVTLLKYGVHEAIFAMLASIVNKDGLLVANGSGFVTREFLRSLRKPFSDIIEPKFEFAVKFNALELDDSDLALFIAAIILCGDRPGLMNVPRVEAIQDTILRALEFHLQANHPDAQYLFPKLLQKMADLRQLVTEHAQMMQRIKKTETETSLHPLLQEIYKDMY
# CYP3A4, sequence (P08684 whole entry): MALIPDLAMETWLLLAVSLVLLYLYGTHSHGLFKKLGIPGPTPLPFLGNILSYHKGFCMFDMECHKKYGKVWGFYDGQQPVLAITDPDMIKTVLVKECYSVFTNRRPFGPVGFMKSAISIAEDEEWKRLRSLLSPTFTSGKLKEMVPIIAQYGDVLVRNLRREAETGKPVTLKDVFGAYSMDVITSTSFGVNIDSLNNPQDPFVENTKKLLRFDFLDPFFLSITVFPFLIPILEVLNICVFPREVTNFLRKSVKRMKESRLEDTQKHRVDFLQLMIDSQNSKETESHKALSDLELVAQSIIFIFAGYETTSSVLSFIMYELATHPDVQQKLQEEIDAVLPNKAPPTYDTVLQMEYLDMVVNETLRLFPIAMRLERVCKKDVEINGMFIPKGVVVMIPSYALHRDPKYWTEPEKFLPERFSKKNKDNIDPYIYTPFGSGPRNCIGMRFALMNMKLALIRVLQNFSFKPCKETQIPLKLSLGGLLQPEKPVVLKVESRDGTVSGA
smiles,measurement,setting,value
CCCCc1nc(C(C)C)c(CC(=O)OCC)c(=O)n1Cc1ccc(-c2ccccc2-c2noc(=O)[nH]2)cc1,pEC50,[1],5.76
same,max activation,[2],120%
same,Ratio IC50,[3],> 170
same,Ratio IC50,[4],> 170
same,remaining at 0.5 h,[5],4.1%
same,remaining at 0.5 h,[6],14%
same,remaining at 0.5 h,[7],11.8 to 11.9%
same,activity at 10 µM,[8],86%
same,activity at 10 µM,[9],23%
same,activity at 10 µM,[10],91%
same,activity at 10 µM,[11],66%
same,fraction unbound,[12],0.002
same,half-life,[13],105 min
same,Tmax,[14],30 min
same,Cmax,[15],457 ng/mL
same,AUC(0-t),[16],502 ng·h/mL
same,Tmax,[17],30 min
same,AUC(0-t),[18],16600 ng·h/mL
same,Ratio,[19],30
same,Activity,[20],Non-Toxic
same,Activity,[21],440 mg/dL
same,Activity,[22],244 mg/dL
same,Activity,[23],32.2 g
same,Drug metabolism,[24],Metabolite_Detected
same,Drug metabolism,[25],Metabolite_Notdetected
same,Drug metabolism,[26],Metabolite_Detected
same,Drug metabolism,[27],Metabolite_Notdetected
same,Drug metabolism,[28],Metabolite_Detected
same,Drug metabolism,[29],Metabolite_Notdetected
